# Counter-ions that a name gives are not always drawn. Like-named read-outs stand apart in the source and are kept apart here.
# Legend:
# Calu-3 cells [1] = conditions: human, pH 7.4
# in vitro = conditions: human, pH 7.4, Papp
# Calu-3 cells [2] = tested on: Calu-3 cells
# Experimental: (§1) 0.5 x 10^6 Calu-3 cells (passage 32–38) were seeded per membrane and different exposure systems were used (Fig A in S1 File). To discriminate between the different exposures, the following terminology is used. Cultures with cells supplied with medium only from the basolateral side are termed air-liquid interface culture. In submersed liquid exposure (SLE) cells are cultured in submersion and exposed with compound dissolved in buffer. In the air liquid exposure (ALE) cells are cultured at an air-liquid interface and the compound dissolved in buffer is applied to the cells. For air-liquid interface deposition (AID) cells are cultured at an air-liquid interface and exposed to the compound applied as liquid aerosols by MicroSprayer IA-1C Aerosolizer (AID_M) or as powder aerosols by DP-4 Dry Powder Insufflator (AID_D). For comparison of the different exposure systems Calu-3 cells cultured for 11 days on 3 μm 12-well insert (Greiner Bio-One) were used.
# (§2) For SLE and ALE exposures the apical compartment was filled with 500 μL and the basolateral compartment with 1500 μL. […] For AID studies the basal compartment was filled with 700 μl, and 200 μl of drug dissolved in Krebs-Ringer buffer were sprayed on each Transwell insert using the MicroSprayer IA-1C Aerosolizer (AID_M exposure). […] 100 μl samples from the basolateral compartment were taken at 0–30–60–90–120 min and replaced with pre-warmed Krebs-Ringer buffer. […] At the end of the SLE and ALE studies the content of the basolateral compartment and 10 μl of the apical compartment were collected. […] The total volume of this solution was determined and this value minus the added 100 μl used for calculations of drug concentrations. The entire content of the basolateral compartment and 10 μl of the apical compartment were collected.
# (§3) The MicroSprayer IA-1C Aerosolizer (PennCentury Inc., Wyndmoor, PA) was used to mimic nebulization of the compounds. The device consists of a thin, flexible, stainless steel tube measuring 0.64 mm in diameter and 50.8 cm in length attached to the light, hand-operated, high-pressure syringe FMJ-250. A unique patented atomizer at the very tip of the tube generates the aerosol with a mass median diameter of 16–22 μm (http://www.penncentury.com/products/IA_1C.php). The device was fixed at a distance of 11 cm between tip of the MicroSprayer and the rim of the exposure plate. Inserts were transferred to a separate (exposure) plate to avoid contamination of the adjacent inserts and 200 μl of the aerosol were applied per well (Fig B, a in S1 File). After the treatment the insert was replaced into the original plate for transport studies. The device was cleaned with 70% ethanol and aqua dest. at the end of the experiments and dried at 60°C overnight.
# (§4) Damage of monolayer integrity was interpreted as difference between TEER values before and after the experiments > 100 Ω*cm^2.
# [3] = Transport studies across Calu-3 monolayers, compounds applied in solution (SLE, ALE), Papp; conditions: human; for Papp at 120 min, 10 μg/ml: pH 7.4, Papp values for fluorescein, n = 12
# Calu-3 cells [4] = assay: as above
# [5] = Size of particles delivered by DP-4 Dry Powder Insufflator, bright-field microscopy; type: physicochemical; conditions: roughly spherical particles
# Experimental: Particles that were delivered by the DP-4 Dry Powder Insufflator were analyzed by bright-field microscopy. […] Sizes were measured using Cell^D Imaging software (Olympus).
# Calu-3 cells [6] = assay: Transport of aerosolized compounds across Calu-3 monolayers (AID_M MicroSprayer, AID_D DP-4 insufflator); conditions: for Dye transport relative to SLE: application with DP-4 Dry Powder Insufflator (AID_D); for Dye transport relative to SLE incubation: application with MicroSprayer IA-1C Aerosolizer (AID_M)
# Experimental: as §1, §2, §3, §4
# Calu-3 cells [7] = conditions: cited from earlier work; for Papp values of rhodamine 123 reported: ref [68],[70]
# [8] = pH 7.4, Papp, SLE (submersed culture, compound in buffer), n = 4
# [9] = pH 7.4, Papp, ALE (air-liquid interface culture, compound in buffer), n = 4
Structure (SMILES),Papp (Calu-3 cells [1]),Ratio Papp (ALE/ SLE) (Calu-3 cells [1]),Papp (in vitro) [×10⁻⁶ cm/s],Transport in the fixed dose combination Symbicort versus applied alone (Calu-3 cells [2]),Papp at 120 min ([3]; pH 7.4) [×10⁻⁶ cm/s],"Papp at 120 min [3, 8] [×10⁻⁶ cm/s]",Ratio Papp (ALE/ SLE) (Calu-3 cells [4]),"Amount of budesonide in the cells (Calu-3 cells [4]; cell lysis after the last sample, total recovered amount 19.3±0.7 μg) [µg]","Change of budesonide transport on co-incubation with formoterol (Calu-3 cells [4]; solution, SLE and ALE, mixture 50 μM budesonide and 0.5 mM formoterol fumarate)",Size of delivered single particles [5] [μm],"Transport in the fixed dose combination Symbicort versus applied alone (Calu-3 cells [6]; DP-4 Dry Powder Insufflator (AID_D), n = 3)",Papp values of rhodamine 123 reported (Calu-3 cells [7]; ALE) [×10⁻⁶ cm/s],Papp values of rhodamine 123 reported (Calu-3 cells [7]; SLE) [×10⁻⁶ cm/s],"Papp at 120 min [3, 9] [×10⁻⁶ cm/s]",Dye transport relative to SLE (Calu-3 cells [6]) [times],Dye transport relative to SLE incubation (Calu-3 cells [6]) [times],"Papp values of fluorescein published by other groups (Calu-3 cells [7]; SLE, ref [8],[41],[49],[65]–[69]) [x 10–6 cm/s]","Papp at 120 min, 10 μg/ml ([3]; Air-liquid interface culture, 0.4 μm pores) [×10⁻⁶ cm/s]","Papp at 120 min, 10 μg/ml ([3]; Air-liquid interface culture, 3 μm pores) [×10⁻⁶ cm/s]","Papp at 120 min, 10 μg/ml ([3]; Submersed culture, 3 μm pores) [×10⁻⁶ cm/s]"
"COc1ccc(CC(C)NCC(O)c2ccc(O)c(NC=O)c2)cc1 (stereo not shown) [Formoterol, formoterol fumarate dihydrate]",1.72±0.24 10^−6 cm/s,1.73,2.98 ± 0.79,significantly higher,,,,,,,,,,,,,,,,
"CCCC1O[C@@H]2C[C@H]3[C@@H]4CCC5=CC(=O)C=C[C@]5(C)[C@H]4[C@@H](O)C[C@]3(C)[C@]2(C(=O)CO)O1 (stereo partly shown) [Budesonide, budesonide]",,,,,17.9 ± 1.36,13.18 ± 0.06,1.36,0.96,did not show changes,3.2± 1.3,no differences,,,,,,,,,
"COC(=O)c1ccccc1-c1c2ccc(=N)cc-2oc2cc(N)ccc12 [Rhodamine 123, rhodamine 123]",,,,,,0.07 ± 0.02,3.86,,,,,2.27,0.49,0.27 ± 0.09,48.2,3.2,,,,
"O=C1OC2(c3ccc(O)cc3Oc3cc(O)ccc32)c2ccccc21 [Fluorescein, Sodium fluorescein]",,,,,,0.09 ± 0.04,3.00,,,1.1±0.3,,,,0.27 ± 0.08,131.7,4.3,0.1,0.23 ± 0.04,0.27 ± 0.08,0.09 ± 0.04
